Here are results for ten compounds from patent publication US9074014B2 (Ipsen Pharma S.A.S., priority 2008, dated 2015).

Where a SMILES comes first, the peptide text is derived from it. Where no end group is shown, it is not given here. [ ]: non-standard residue; d: D form. The star is where a group is joined. Myristoyl = CCCCCCCCCCCCCC(=O)*; Ac6c = NC1(C(=O)O)CCCCC1; Nle = CCCC[C@H](N)C(=O)O; Orn = NCCC[C@H](N)C(=O)O; Ac5c = NC1(C(=O)O)CCCC1; Aib = CC(C)(N)C(=O)O

Data set [1] can be described thus: Human plasma half-life assay. In kind it is in vitro ADME. To be noted: human plasma, 37° C., LC-MS. The procedure: (§1) B. Human and Rat Plasma Half-Life Assay
(§2) 50 μL was removed at various times, like at 0, 1, 2, 3, 4, 8, 24, 32, 48, 56, 72 hours, mixed with 5 μL formic acid and 150 μL acetonitrile in a microcentrifuge tube, vertexed, and centrifuged for 10 minutes at 10K rpm. The supernatant was transferred to an injection vial and analyzed by LC-MS. The LC-MS system consisted of an API4000 mass spectrometer with an ESI probe. Positive ion mode and full scan detection were used. HPLC separation was carried out on a Luna 3μ C8 (2), 2×30 mm column with a gradient from 90% A to 90% B in 10 minutes at a flow rate of 0.3 ml/min. Buffer A was 1% formic acid in water and buffer B was 1% formic acid acetonitrile.

Data set [2] in a line: Rat plasma half-life assay. The class given is in vitro ADME. As to conditions: rat plasma, 37° C., LC-MS; for half-life at 0.1 mg/ml: read-out: Rat Plasma T½ (converted). The procedure: as §1, §2
[3] abbreviates: read-out: Human Plasma T½ (converted).

On to `CC[C@H](C)[C@H](NC(=O)[C@H](CCCCN)NC(=O)[C@H](CC(=O)O)NC(=O)C1(NC(=O)[C@H](C)NC(=O)[C@@H](NC(=O)C2(NC(=O)[C@H](Cc3ccc(O)cc3)NC(=O)[C@H](CC(=O)O)NC(=O)[C@H](CO)NC(=O)[C@@H](NC(=O)[C@H](Cc3ccccc3)NC(=O)[C@@H](NC(=O)CNC(=O)[C@H](CCC(=O)O)NC(=O)C(C)(C)NC(=O)[C@@H](N)Cc3ccc(O)cc3)[C@@H](C)O)[C@@H](C)CC)CCCC2)[C@@H](C)CC)CCCCC1)C(=O)N[C@@H](Cc1c[nH]cn1)C(=O)N[C@@H](CCC(N)=O)C(=O)N[C@@H](CCC(N)=O)C(=O)N[C@@H](CC(=O)O)C(=O)N[C@@H](Cc1ccccc1)C(=O)N[C@H](C(=O)N[C@@H](CC(N)=O)C(=O)N[C@@H](Cc1c[nH]c2ccccc12)C(=O)N[C@@H](CC(C)C)C(=O)N[C@@H](CC(C)C)C(=O)N[C@@H](C)C(=O)N[C@@H](CCC(N)=O)C(=O)N[C@@H](CCCCN)C(N)=O)C(C)C` [Example 48, (Aib^2, A5c^11, A6c^14)hGIP(1-30)-NH2], for which the half-life at 0.1 mg/ml in data set [1] (setting [3]) is more than 56 h; in data set [2], more than 54 h.

Consider “[Orn](Myristoyl)AEGTF[Ac6c]SDYSIAMDKIHQQDFVNWLLAQKGKKNDWKHNITQ-OH [Example 103, [Orn^1(N—C(O)—(CH2)12—CH3), A6c^7]hGIP(1-42)-OH]”, for which the half-life is 6.8 h in data set [1] (setting [3]) and more than 72 h in data set [2] (read-out: Rat Plasma T½).

“Y[Aib]EGTFISDY[Aib]IAMDKIHQQDFVNWLLAQKGKKNDWKHNITQ-OH [Example 1, (Aib^2, 11)hGIP(1-42)-OH]”: the half-life at 0.1 mg/ml in data set [1] (setting [3]) is more than 48 h; in data set [2] it was 3.9 h.

With `CC[C@H](C)[C@H](NC(=O)[C@H](CCCCN)NC(=O)[C@H](CC(=O)O)NC(=O)[C@H](CCSC)NC(=O)C(C)(C)NC(=O)[C@@H](NC(=O)[C@H](CO)NC(=O)[C@H](Cc1ccc(O)cc1)NC(=O)[C@H](CC(=O)O)NC(=O)[C@H](CO)NC(=O)[C@@H](NC(=O)[C@H](Cc1ccccc1)NC(=O)[C@@H](NC(=O)CNC(=O)[C@H](CCC(=O)O)NC(=O)C(C)(C)NC(=O)[C@@H](N)Cc1ccc(O)cc1)[C@@H](C)O)[C@@H](C)CC)[C@@H](C)CC)C(=O)N[C@@H](Cc1c[nH]cn1)C(=O)N[C@@H](CCC(N)=O)C(=O)N[C@@H](CCC(N)=O)C(=O)N[C@@H](CC(=O)O)C(=O)N[C@@H](Cc1ccccc1)C(=O)N[C@H](C(=O)N[C@@H](CC(N)=O)C(=O)N[C@@H](Cc1c[nH]c2ccccc12)C(=O)N[C@@H](CC(C)C)C(=O)N[C@@H](CC(C)C)C(=O)N[C@@H](C)C(=O)N[C@@H](CCC(N)=O)C(=O)N[C@@H](CCCCN)C(N)=O)C(C)C` [Example 47, (Aib^2, 13)hGIP(1-30)-NH2] (H-Y[Aib]EGTFISDYSI[Aib]MDKIHQQDFVNWLLAQK-NH2; N-terminus assumed), the figures for the half-life at 0.1 mg/ml in data set [1] (setting [3]) and in data set [2] were 45.3 h and 30.8 h, respectively.

On to `CC[C@H](C)[C@H](NC(=O)[C@H](CO)NC(=O)[C@H](Cc1ccc(O)cc1)NC(=O)C(C)(C)NC(=O)[C@H](CO)NC(=O)[C@@H](NC(=O)[C@H](Cc1ccccc1)NC(=O)[C@@H](NC(=O)CNC(=O)[C@H](CCC(=O)O)NC(=O)C(C)(C)NC(=O)[C@@H](N)Cc1ccc(O)cc1)[C@@H](C)O)[C@@H](C)CC)C(=O)N[C@@H](C)C(=O)N[C@@H](CCSC)C(=O)N[C@@H](CC(=O)O)C(=O)N[C@@H](CCCCN)C(=O)N[C@H](C(=O)N[C@@H](Cc1c[nH]cn1)C(=O)N[C@@H](CCC(N)=O)C(=O)N[C@@H](CCC(N)=O)C(=O)N[C@@H](CC(=O)O)C(=O)N[C@@H](Cc1ccccc1)C(=O)N[C@H](C(=O)N[C@@H](CC(N)=O)C(=O)N[C@@H](Cc1c[nH]c2ccccc12)C(=O)N[C@@H](CC(C)C)C(=O)N[C@@H](CC(C)C)C(=O)N[C@@H](C)C(=O)N[C@@H](CCC(N)=O)C(=O)N[C@@H](CCCCN)C(N)=O)C(C)C)[C@@H](C)CC` [Example 18, (Aib^2, 9)hGIP(1-30)-NH2] (H-Y[Aib]EGTFIS[Aib]YSIAMDKIHQQDFVNWLLAQK-NH2; N-terminus assumed), for which the half-life at 0.1 mg/ml in data set [1] (setting [3]) is 11.3 h; in data set [2], 44.4 h.

Turning to “Y[dA]EGTFISDY[Ac5c]IAMDKIHQQDFVNWLLAQKGKKNDWKHN[Ac5c]TQ-OH [Example 104, (D-Ala^2, A5c^11,40)hGIP(1-42)-OH]”, the half-life at 0.1 mg/ml in data set [1] (setting [3]) is 20.2 h; in data set [2] it was 14.8 h.

Take `CC[C@H](C)[C@H](NC(=O)[C@H](CCCCN)NC(=O)[C@H](CC(=O)O)NC(=O)[C@H](CCSC)NC(=O)[C@H](C)NC(=O)[C@@H](NC(=O)C1(NC(=O)[C@H](Cc2ccc(O)cc2)NC(=O)[C@H](CC(=O)O)NC(=O)[C@H](CO)NC(=O)[C@@H](NC(=O)[C@H](Cc2ccccc2)NC(=O)[C@@H](NC(=O)CNC(=O)[C@@H]2CCCN2C(=O)[C@H](C)NC(=O)[C@@H](N)Cc2ccc(O)cc2)[C@@H](C)O)[C@@H](C)CC)CCCC1)[C@@H](C)CC)C(=O)N[C@@H](Cc1c[nH]cn1)C(=O)N[C@@H](CCC(N)=O)C(=O)N[C@@H](CCC(N)=O)C(=O)N[C@@H](CC(=O)O)C(=O)N[C@@H](Cc1ccccc1)C(=O)N[C@H](C(=O)N[C@@H](CC(N)=O)C(=O)N[C@@H](Cc1c[nH]c2ccccc12)C(=O)N[C@@H](CC(C)C)C(=O)N[C@@H](CC(C)C)C(=O)N[C@@H](C)C(=O)N[C@@H](CCC(N)=O)C(=O)N[C@@H](CCCCN)C(=O)NCC(=O)N[C@@H](CCCCN)C(=O)N[C@@H](CCCCN)C(=O)N[C@@H](CC(N)=O)C(=O)N[C@@H](CC(=O)O)C(=O)N[C@@H](Cc1c[nH]c2ccccc12)C(=O)N[C@@H](CCCCN)C(=O)N[C@@H](Cc1c[nH]cn1)C(=O)N[C@@H](CC(N)=O)C(=O)N[C@H](C(=O)N[C@H](C(=O)N[C@@H](CCC(N)=O)C(=O)O)[C@@H](C)O)[C@@H](C)CC)C(C)C` [Example 77, (Pro^3, A5c^11)hGIP(1-42)-OH]: the figures for the half-life at 0.1 mg/ml in data set [1] (setting [3]) and in data set [2] were 43.3 h and 1.5 h, respectively.

Turning to `CCCC[C@H](NC(=O)[C@H](C)NC(=O)[C@@H](NC(=O)C1(NC(=O)[C@H](Cc2ccc(O)cc2)NC(=O)[C@H](CC(=O)O)NC(=O)[C@H](CO)NC(=O)[C@@H](NC(=O)[C@H](Cc2ccccc2)NC(=O)[C@@H](NC(=O)CNC(=O)[C@H](CCC(=O)O)NC(=O)C(C)(C)NC(=O)[C@@H](N)Cc2ccc(O)cc2)[C@@H](C)O)[C@@H](C)CC)CCCC1)[C@@H](C)CC)C(=O)N[C@@H](CC(=O)O)C(=O)N[C@@H](CCCCN)C(=O)N[C@H](C(=O)N[C@@H](Cc1c[nH]cn1)C(=O)N[C@@H](CCC(N)=O)C(=O)N[C@@H](CCC(N)=O)C(=O)N[C@@H](CC(=O)O)C(=O)N[C@@H](Cc1ccccc1)C(=O)N[C@H](C(=O)N[C@@H](CC(N)=O)C(=O)N[C@@H](Cc1c[nH]c2ccccc12)C(=O)N[C@@H](CC(C)C)C(=O)N[C@@H](CC(C)C)C(=O)N[C@@H](C)C(=O)N[C@@H](CCC(N)=O)C(=O)N[C@@H](CCCCN)C(N)=O)C(C)C)[C@@H](C)CC` [Example 50, (Aib^2, A5c^11, Nle^14)hGIP(1-30)-NH2] (H-Y[Aib]EGTFISDY[Ac5c]IA[Nle]DKIHQQDFVNWLLAQK-NH2; N-terminus assumed), in data set [1], the “Human Plasma T½” value was found to be 48.1 h. Further, in data set [2], the “Rat Plasma T½” value was more than 54 h.

On to “Y[Aib]EGTFI[Aib]DYSIAMDKIHQQDFVNWLLAQKGKKNDWKHNITQ-OH [Example 9, (Aib^2, 8)hGIP(1-42)-OH]”, for which the half-life at 0.1 mg/ml was more than 48 h in data set [1] (setting [3]) and 9.2 h in data set [2].

On to “Y[Ac5c]EGTF[Ac5c]SDYSIA[Ac6c]DKIHQQDFVNWLLAQKGKKNDWKHNITQ-OH [Example 56, (A5c^2,7, A6c^14)hGIP(1-42)-OH]”, for which the figures for the half-life at 0.1 mg/ml in data set [1] (setting [3]) and in data set [2] were 16 h and 9.2 h, respectively.
